# Laboratory results from article PMC2635431 (Journal of pharmaceutical sciences, 2009).
# How the values were obtained:
# [1] = Corticosterone solubility in enhancer-PBS solution relative to PBS; conditions: enhancer concentration of Protocol I, 37°C
# [2] = experimental, from the literature; cited from earlier work
# [3] = tested on: human epidermal membrane (HEM); test: Passive transport of corticosterone; type: in vitro ADME; conditions: CS lipoidal pathway permeability vs PBS control (Eq. 3)
# [4] = tested on: human epidermal membrane (HEM); test: Evaluation of direct enhancer treatment time on CS permeability of HEM; type: in vitro ADME; conditions: direct treatment 1, 4, 20 min; p > 0.05, t-test
# [5] = tested on: human epidermal membrane (HEM); test: Enhancer depletion and recovery of HEM barrier; type: in vitro ADME; conditions: Protocol II, enhancer depletion in PBS
SMILES,effect of treatment time on permeability coefficients of CS [4],time for HEM permeability to return to the PBS control value [5],Enhancement Ratio (Emax) ([3]; Protocol III),Enhancement Ratio (Emax) ([3]; Protocol II),other results
"COc1ccc(O)c(C(C)(C)C)c1 [BHA, 1,1-Dimethylethyl-4-methoxy phenol]",,,,,CS Solubility Ratio (enhancer/PBS solution vs PBS) [1]: 1.16 ± 0.03; log Koct [2]: 3.14 ^b^53
"CCCCCCCCCCCCN1CCCC1=O [DoP, 1-Dodecyl-2-pyrrolidinone]",,,14 ± 6,,
"CCCCCCCCCCCCCC(=O)OC(C)C [IPM, Propan-2-yl tetradecanoate]",did not significantly affect,,3.3 ± 1.1,2.8 ± 0.2,
"CCCCCCCC/C=C\CCCCCCCCO [OA, (Z)-Octadec-9-en-1-ol]",did not significantly affect,,,5.5 ± 1.5,
"CCCCC(CC)COC(=O)c1ccc(N(C)C)cc1 (centres unmarked) [PADO, 2-Ethylhexyl 4-(dimethylamino) benzoate]",did not significantly affect,,3.8 ± 1.1,4.1 ± 0.7,
"OCCOc1ccccc1 [PHE, 2-Phenoxy-1-ethanol]",,less than 2 h,,,

# Second part, led by results:
effect of treatment time on permeability coefficients of CS [4],time for HEM permeability to return to the PBS control value [5],SMILES,Enhancement Ratio (Emax) ([3]; Protocol III),Enhancement Ratio (Emax) ([3]; Protocol II),other results
,approximately 6 h,"CCCCCCCCO [OC, 1-Octanol]",18 ± 2,,
,approximately 6 h,"CCCCCCCCN1CCCC1=O [OP, 1-Octyl-2-pyrrolidinone]",16 ± 6,,
did not significantly affect,,"CCCCC(CC)COC(=O)c1ccccc1O (centres unmarked) [OS, 2-Ethylhexyl 2-hydroxybenzoate]",,5.0 ± 3.6,
did not significantly affect,,"CCCCCCCCCCCO [UD, Undecan-1-ol]",,17 ± 2,
